Experiment [1] relates to Interferon-α. Kind of experiment: Induction of Interferon-α using cryopreserved human PBMCs. Conditions: PBMC, 24 h, normalised to 1 uM resiquimod, read-out: mean pEC50 for induction of Interferon-α (converted). It counts as cell-based. Put shortly: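 Thawed cryopreserved human PBMCs at 1×10^6 cells/ml in RPMI/10% FCS with 1000 units/ml IFN-gamma were exposed to 11-point, 2-fold compound dilutions for 24 h at 37° C. Supernatant IFN-α was quantified by MSD sandwich immunoassay. pEC50 came from 4-parameter fit, normalised to 1 uM resiquimod and DMSO controls.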

Experiment [2] deals with IL-5. Kind of experiment: Allergen-driven cytokine assay using fresh human PBMCs from atopic volunteers (IL-5). In kind it is cell-based. The note with it: at 0.04 μM; atopic donor PBMCs with Timothy grass antigen, up to 6 days. The protocol: (§1) Allergen-Driven Cytokine Assay Using Fresh Human Peripheral Blood Mononuclear Cells (PBMCs) from Atopic Volunteers
(§2) An assay based on co-culture of atopic human donor derived peripheral blood mononuclear cells (PBMCs) with allergen and test compounds was developed. After 5-6 days culture, cell supernatants were assayed for a range of cytokines.
(§3) Compounds were dissolved in DMSO, then serially diluted in growth medium (RPMI 1640 medium supplemented with 100 U/ml penicillin G, 100 μg/ml streptomycin, 10 mM L-glutamine) to give 4× the required concentration range in the presence of 0.04% DMSO. Each compound was assayed in triplicate at all concentrations.
(§4) Defibrinated human blood from volunteers known to be allergic to Timothy grass was centrifuged at 2500 rpm for 15 minutes. The upper layer of serum was collected and heat-inactivated at 56° C. for 30 minutes (HI-autologous serum). The lower layer of cells was resuspended in 50 ml PBS (+Ca +Mg), 25 ml diluted blood were overlaid onto 20 ml Lymphoprep in 50 ml tubes then centrifuged at 2500 rpm for 20 minutes at RT. The band at the serum/Lymphoprep interface was carefully removed. […]
(§5) Plates were incubated at 37° C. in 5% CO2 for up to 6 days. […] Cytokines and chemokines in supernatants were detected using Meso Scale Discovery 10 spot plates for Human TH1/Th2 cytokines.

Experiment [3] concerns IL-13. In words: Allergen-driven cytokine assay using fresh human PBMCs from atopic volunteers (IL-13). In kind it is cell-based. Conditions: at 0.2 μM; atopic donor PBMCs with Timothy grass antigen, up to 6 days. As for the experimental part: as §1, §2, §3, §4, §5
Experiment [4] has as its system Interferon-α. Kind of experiment: Induction of Interferon-α using fresh human PBMCs. In kind it is cell-based. The note with it: PBMC, 24 hr, relative to 2 μM resiquimod control, read-out: mean pEC50 for induction of IFN-α (converted). The protocol: (§6) Assay for the Induction of Interferon-α and TNF-α Using Fresh Human Peripheral Blood Mononuclear Cells (PBMCs)
(§7) Compounds were dissolved and serially diluted in DMSO to give 100× the required concentration range using a Biomek 2000. 1 ul of test compound was transferred into 96-well tissue culture plates using a Biomek FX. Each compound was assayed in duplicate for each donor. Each plate contained a dilution series of the TLR7/8 agonist resiquimod as standard and Column 11 contained 1 μl of 200 μM resiquimod (giving a 2 μM final concentration, used to define the approximate maximal response to resiquimod).
(§8) Blood samples from two human donors were collected into sodium heparin (10 U/ml). 25 ml volumes of whole blood were overlaid onto 15 mls Histopaque in Leucosep tubes which were centrifuged at 800 g for 20 min and the band at the plasma/histopaque interface carefully removed. The collected cells were centrifuged at 2500 rpm for 10 min and the pellet resuspended in 10 ml of media (RPMI 1640 (Low endotoxin) supplemented with 10% v/v foetal calf serum (FCS, low endotoxin) 100 U/ml penicillin G, 100 μg/ml streptomycin, 10 mM L-glutamine and 1× non-essential amino acids). A 1:20 dilution of the cells was prepared using trypan blue & the cells counted using a haemocytometer. The PBMCs were diluted to give a final concentration of 2×10^6/ml and 100 ul of this cells suspension was added to wells containing 1 μl of diluted test compound.
(§9) The cell preparations were incubated for 24 hr (37° C., 95% air, 5% CO2) after which a sample of the supernatant was removed using the Biomek FX and assayed for both IFN-α and TNF-α using the MSD (Mesoscale Discovery) electrochemiluminescence assay platform. The IFN-α assay was carried out similarly to that described above. The TNF-α assay was carried out as per kit instructions (Cat No K111 BHB).
(§10) Cytokine released was expressed as a percentage of the 2 μM resiquimod control (column 11). This percentage was plotted against compound concentration and the pEC50 for the response determined by non-linear least squares curve fitting. For the IFN-α responses generally a 4 parameter logistic model was selected. For the TNF responses where a clear maximum response was obtained (i.e. a well defined plateau in the response was observed) then a 4 parameter model was generally used. If the upper asymptote of the curve wasn't well defined then the curve fitting was generally constrained to a maximal response of 100% (i.e., to the response to 2 μM resiquimod) or to the response of the highest concentration tested if this was greater than the resiquimod response. Some curves were bell shaped for one or both cytokines and the cytokine data on the down slope of the bell shaped response (i.e. concentrations above those giving the maximal response) were generally excluded from the fit, usually with the exception of the concentration immediately above the peak response. Curve fitting thus concentrated on the up slope of the dose response curve.

Experiment [5] deals with TNF-α. In words: Induction of TNF-α using fresh human PBMCs. In kind it is cell-based. Conditions: PBMC, 24 hr, relative to 2 μM resiquimod control, read-out: mean pEC50 for induction of TNF-α (converted). The protocol: as §6, §7, §8, §9, §10
Experiment [6] has as its system Interferon-α. Kind of experiment: Induction of Interferon-α following intranasal dosing in the mouse. It counts as in vivo. The note with it: female BALB/c mice, 2 hours after dosing, ELISA. As for the experimental part:
Assay for the Induction of Interferon-α Following Intranasal Dosing in the Mouse.
Example 46 was dissolved in 0.2% Tween 80 in saline and administered intranasally (5 μl in total between the nostrils) to female BALB/c mice (n=6) under general anaesthesia. Animals were euthanased 2 hours after dosing and a terminal blood sample was taken and serum levels of Interferon-α was measured using an ELISA assay. Mean serum levels of Interferon-α of 1253 pg/ml were measured. No Interferon-α was detected in vehicle treated controls.
For orientation: ELISA stands for enzyme-linked immunosorbent assay.

A value given as a limit tells only on which side of the number the result lay.

Regarding `CCC[C@H](C)Oc1nc(N)c2[nH]c(=O)n(CCCCCN3CCN(C(C)C)CC3)c2n1` [Example 52, 6-Amino-2-{[(1S)-1-methylbutyl]oxy}-9-{5-[4-(1-methylethyl)-1-piperazinyl]pentyl}-7,9-dihydro-8H-purin-8-one], in experiment [1], the EC50 was under 3160 nM. Also, the “reduction of IL-5 production compared to the allergen control” value in experiment [2] was over 50%. Further, the “reduction of IL-13 production compared to the allergen control” value in experiment [3] was over 50%.
For the compound `CCCCOc1nc(N)c2[nH]c(=O)n(CCCCCN3CCN(C)CC3)c2n1` [Example 46, 6-Amino-2-(butyloxy)-9-[5-(4-methyl-1-piperazinyl)pentyl]-7,9-dihydro-8H-purin-8-one], the EC50 in experiment [1] is under 3160 nM; in experiment [4], under 1 nM; in experiment [5] it was over 1000 nM. For the same compound, the “mean serum levels of Interferon-α” value in experiment [6] was found to be 1253 pg/mL.

Values taken from US20110135671A1, “PURINE DERIVATIVES FOR USE IN THE TREATMENT OF ALLERGIC, INFLAMMATORY AND INFECTIOUS DISEASES” (GLAXOSMITHKLINE LLC, priority 2008, published 2011).
